This is an account of results in patent US4428938A, “Peptides affecting the immune regulation and a process for their preparation” (Richter Gedeon Vegyeszeti Gyar Rt., priority 1981, dated 1984).

SMILES strings stand for the structures. Non-standard residues stand in square brackets, D forms with d. Residues, ends and D or L forms follow the SMILES beside them. pGlu = O=C1CC[C@@H](C(=O)O)N1

Assay [1] relates to lymphocytes of patients suffering from rheumatoid arthritis. Description: Active E-rosette test, lymphocytes of rheumatoid arthritis patients. The format is cell-based, human. Particulars: for E-rosette forming activity, percentage amount of active lymphocytes: n = 4. Here is the method:
(§1) The active E-rosette test was carried out according to a modified method of Wybran et al [Wybran et al: New Engl. J. Med. 292, 475 (1975)] by the lymphocites of healthy and autoimmune patients (rheumatoid arthritis and systemic lupus erythematosus). To 50 μl of a lymphocyte cell suspension 10^-3 -10^-11 moles/lit. solutions of the test material were added and the mixture was incubated in an atmosphere containing 5.0% of carbon dioxide, at 37° C. for 60 minutes. Thereafter 50 μlit. of a 1% sheep erythrocite suspension were added and the mixture was centrifuged at 1000 r.p.m. for 10 minutes followed by shaking with a modified Gallenkampf-shaker (shaking time: 30 sec, stroke: 8 cm, shaking frequency: 65/min.). The rosettes were fixed with a 0.1% glutaric aldehyde (50 μlit. for each tube, 3 min.). Lymphocytes bonding more than three sheep erythrocite were counted under a microscope and 4×100 cells were evaluated. The separated lymphocytes contain macrophages and polymorphonuclear cells (up to 10%) as an impurity. The number of the cells forming the rosettes was corrected by this value each case.

Assay [2] has as its system lymphocytes of healthy persons. Description: Active E-rosette test, lymphocytes of healthy persons. The format is cell-based, human. The note with it: for E-rosette forming activity, percentage amount of active lymphocytes: n = 4. As to the method: as §1
For assay [3], the system named is antibody production against sheep erythrocyte. Description: Effect on antibody production (Ceglowski's method), agglutination titer. It is filed as in vivo, H. Wistar rats. Here is the method:
(1) The effect on antibody production was tested according to Ceglowski's method [Ceglowski: Ann. N.Y. Acad. Sci. 249, 343 (1975)]. New-born H. Wistar rats were treated with single 25 μlit. doses of 4×10^-3 -4×10^-7 moles/lit. of the test material (9 animals for each dose) at the latest at the 12th hour after birth. The 14-day animals were then immunized with a sheep erythrocyte suspension administering 0.5 ml. of a 5% sheep erythrocyte suspension each animal intraperitoneally. On the 7th day after immunization the animals were decapitated. The blood of three animals was mixed and from the serum obtained (after centrifuging at 3000 r.p.m. for 10 minutes) the titers for antibodies were determined by the method of Takatsy [Takatsy: Acta Microbiol. Acad. Sci. Hung. 3, 191 (1955)]. The results are expressed in agglutination titers. The titer corresponds to the […] dilution of the serum in which agglutination can be observed.

Assay [4] concerns plaque forming spleen cells (PFC). Description: Effect on plaque forming spleen cells (PFC). It is filed as in vivo, H. Wistar rats. Particulars: for Ratio of the plaque formation produced by treated and untreated (control) animals: new-born animals. As to the method: (2) The number of the cells producing a specific antibody was determined by the method of Canningham Handbook of Experimental Immunology (editor: D. M. Weir), 2nd Volume, p. 285, Blackwell, Oxford-London (1978). According to this method from the spleen cells of immunized animals, sheep erythrocyte suspension and complement a homogenous suspension was prepared and it was placed into a chamber suitable for forming a single cell layer. Around the spleen cells lytic areolas are formed, the number of which is identical with the number of the cells producing a specific antibody (plaque forming cells, PFC).
The test animals, not later than 12 hour after birth, were given a single i.p. dose of the test material. According to the method (1) three different doses of each substance were tested. On the 7th day after immunization the plaque formation of the spleen cells isolated from the animals was examined.

For assay [5], the system named is antibody production against sheep erythrocyte. Description: Effect on antibody production (Ceglowski's method), agglutination titer. The format is in vivo, H. Wistar rats. This is another data set of the same source.
The mark [6] stands for this setting: single i.p. dose 1.0·10^-4 mmoles.
The mark [7] stands for this setting: single i.p. dose 1.0·10^-6 mmoles.
The mark [8] stands for this setting: single i.p. dose 1.0·10^-8 mmoles.
The mark [9] stands for this setting: single 25 μlit. dose of 4·10^-3 moles/liter to new-born rats.
Setting [10] is: single 25 μlit. dose of 4·10^-5 moles/liter to new-born rats.
[11] abbreviates: single 25 μlit. dose of 4·10^-7 moles/liter to new-born rats.

Consider `CC(C)[C@H](NC(=O)[C@H](CC(=O)O)NC(=O)[C@H](CCCCN)NC(=O)[C@@H](N)CCCNC(=N)N)C(N)=O` [Arg--Lys--Asp--Val--NH2, Arg-Lys-Asp-Val-NH2] (H-RKDV-NH2), for which the “E-rosette forming activity, percentage amount of active lymphocytes” value in assay [1] (10^-3 moles/liter) is recorded as 31.5%; in assay [1] (10^-5 moles/liter) it was 29.8%; in assay [1] (10^-7 moles/liter) it was 26.9%; in assay [1] (10^-9 moles/liter) it was 34.8%; in assay [1] (10^-11 moles/liter) it was 28.2%; in assay [2] (10^-3 moles/liter), 29.0%. The “E-rosette forming activity, percentage amount of active lymphocytes” value was found to be 33.8% in assay [2] (10^-5 moles/liter), 35.1% in assay [2] (10^-7 moles/liter), 26.6% in assay [2] (10^-9 moles/liter) and 38.1% in assay [2] (10^-11 moles/liter). Moreover, the “Effect on E-rosette forming activity (in words)” value in assay [1] (10^-9 moles/lit.) is “significantly stimulated”; in assay [2] (10^-11 moles/lit.) it was “stimulating effect”. The “Antibody production, agglutination titer (X ± S.D.)” value (from here on “Antibody production … (X ± S.D.)”) is 5.2 ± 2.2 in assay [3] (single 25 μlit. dose of 4·10^-4 moles/liter to new-born rats), 6.2 ± 2.0 in assay [3] (single 25 μlit. dose of 4·10^-6 moles/liter to new-born rats) and 6.8 ± 0.8 in assay [5] (single 25 μlit. dose of 4·10^-8 moles/liter to new-born rats). Besides, the “In vivo effect on plaque forming spleen cells (in words)” value in assay [4] (in lower doses) is “about two-times increase”. Also, the figures for the “Ratio of the plaque formation produced by treated and untreated (control) animals” value (shortened to “Ratio of the plaque formation produced”) in assay [4] (setting [6]), in assay [4] (setting [7]) and in assay [4] (setting [8]) were 0.3, 0.52 and 2.7, respectively. In addition, the “In vivo effect on the antibody production (in words)” value in assay [5] (4.10^-8 moles/lit.) is recorded as “significant stimulating activity”.

As for `CC(C)[C@H](NC(=O)[C@H](CC(=O)O)NC(=O)[C@H](CCCCN)NC(=O)[C@H](C)N)C(=O)O` [Ala--Lys--Asp--Val, Ala-Lys-Asp-Val] (H-AKDV-OH), the “E-rosette forming activity, percentage amount of active lymphocytes” value in assay [1] (10^-3 moles/liter) was 25.3%; in assay [1] (10^-5 moles/liter), 22.8%; in assay [1] (10^-7 moles/liter), 22.5%; in assay [1] (10^-9 moles/liter), 23.9%; in assay [1] (10^-11 moles/liter) it was 20.3%; in assay [2] (10^-3 moles/liter), 43.4%. The “E-rosette forming activity, percentage amount of active lymphocytes” value in assay [2] (10^-5 moles/liter) worked out at 34.9%; in assay [2] (10^-7 moles/liter), 47.5%; in assay [2] (10^-9 moles/liter), 39.1%; in assay [2] (10^-11 moles/liter) it was 36.2%. Also, in assay [2] (10^-7 moles/lit.), the “Effect on E-rosette forming activity (in words)” value is “significant stimulating effect”. Moreover, the “In vivo effect on plaque forming spleen cells (in words)” value in assay [4] (in all tested doses) was “significant inhibiting activity”. Moreover, the “Ratio of the plaque formation produced” value was 0.04 in assay [4] (setting [6]) and 0.01 in assay [4] (setting [7]).

For the molecule `COC(=O)[C@@H](NC(=O)[C@H](CC(=O)O)NC(=O)[C@H](CCCCN)NC(=O)[C@@H](N)CCCNC(=N)N)C(C)C` [Arg--Lys--Asp--Val--OMe, Arg-Lys-Asp-Val-OMe] (H-RKDV-OMe), the “E-rosette forming activity, percentage amount of active lymphocytes” value in assay [1] (10^-3 moles/liter) was found to be 31.2%; in assay [1] (10^-5 moles/liter), 30.8%; in assay [1] (10^-7 moles/liter) it was 32.4%; in assay [1] (10^-9 moles/liter) it was 27.9%; in assay [1] (10^-11 moles/liter) it was 26.5%; in assay [2] (10^-3 moles/liter), 26.8%. In addition, the “E-rosette forming activity, percentage amount of active lymphocytes” value is 27.2% in assay [2] (10^-5 moles/liter), 29.4% in assay [2] (10^-7 moles/liter), 24.8% in assay [2] (10^-9 moles/liter) and 23.8% in assay [2] (10^-11 moles/liter). Besides, in assay [1] (10^-7 moles/lit.), the “Effect on E-rosette forming activity (in words)” value is reported as “stimulating effect”. Also, the figures for the “Antibody production … (X ± S.D.)” value in assay [3] (setting [9]), in assay [3] (setting [10]) and in assay [3] (setting [11]) were 6.0 ± 1.7, 4.5 ± 0.5 and 5.5 ± 2.6, respectively.

Regarding `CC(C)[C@H](NC(=O)[C@H](CC(=O)O)NC(=O)[C@H](CCCCN)NC(=O)[C@H](CCCNC(=N)N)NC(=O)[C@@H]1CCC(=O)N1)C(=O)N[C@@H](Cc1ccc(O)cc1)C(=O)O` [Glp--Arg--Lys--Asp--Val--Tyr, Glp-Arg-Lys-Asp-Val-Tyr] ([pGlu]RKDVY-OH), the “E-rosette forming activity, percentage amount of active lymphocytes” value in assay [1] (10^-3 moles/liter) is 24.1%; in assay [1] (10^-5 moles/liter), 22.7%; in assay [1] (10^-7 moles/liter), 22.6%; in assay [1] (10^-9 moles/liter), 26.6%; in assay [1] (10^-11 moles/liter) it was 24.9%; in assay [2] (10^-3 moles/liter) it was 29.9%. The “E-rosette forming activity, percentage amount of active lymphocytes” value in assay [2] (10^-5 moles/liter) turned out to be 22.5%; in assay [2] (10^-7 moles/liter) it was 29.4%; in assay [2] (10^-9 moles/liter) it was 25.5%; in assay [2] (10^-11 moles/liter), 29.9%. Besides, in assay [3] (2.10^-3 moles/lit.), the “In vivo effect on the antibody production (in words)” value is recorded as “inhibiting activity”. Further, the “Antibody production … (X ± S.D.)” value is 3.0 ± 1.0 in assay [3] (column 4·10^-3 moles/liter, footnote x: concentration is half of the head value); 5.2 ± 0.8 in assay [3] (column 4·10^-5 moles/liter, footnote x: concentration is half of the head value); 5.5 ± 0.6 in assay [5] (footnote y: concentration 2·10^-1 moles/liter).

As for `C[C@H](NC(=O)[C@H](CC(=O)O)NC(=O)[C@H](CCCCN)NC(=O)[C@@H](N)CCCNC(=N)N)C(=O)O` [Arg--Lys--Asp--Ala, Arg-Lys-Asp-Ala] (H-RKDA-OH), the “E-rosette forming activity, percentage amount of active lymphocytes” value in assay [1] (10^-3 moles/liter) stood at 28.6%; in assay [1] (10^-5 moles/liter) it was 24.5%; in assay [1] (10^-7 moles/liter) it was 25.8%; in assay [1] (10^-9 moles/liter) it was 25.3%; in assay [1] (10^-11 moles/liter), 27.9%; in assay [2] (10^-3 moles/liter), 41.2%. Besides, the “E-rosette forming activity, percentage amount of active lymphocytes” value in assay [2] (10^-5 moles/liter) amounted to 39.6%; in assay [2] (10^-7 moles/liter) it was 40.8%; in assay [2] (10^-9 moles/liter), 36.4%; in assay [2] (10^-11 moles/liter) it was 40.5%. Besides, the “Effect on E-rosette forming activity (in words)” value in assay [2] (10^-11 moles/lit.) is “stimulating effect”. Moreover, the “In vivo effect on the antibody production (in words)” value in assay [3] (4.10^-7 moles/lit.) was “significant stimulating activity”. The entries for the “Antibody production … (X ± S.D.)” value in assay [3] (setting [9]), in assay [3] (setting [10]) and in assay [3] (setting [11]) were 10.5 ± 1.5, 11.5 ± 0.9 and 12.0 ± 0, respectively. Besides, in assay [4] (in all tested doses), the “In vivo effect on plaque forming spleen cells (in words)” value is given as “substantial increase”. Also, the “Ratio of the plaque formation produced” value is listed as 4.9 in assay [4] (setting [6]), 1.9 in assay [4] (setting [7]) and 3.0 in assay [4] (setting [8]).
